Activity calls are given as the source filed them.
Legend:
[1] = target: T1, Heat shock factor protein 1 (Mus musculus, UniProt P38532); assay: inhibition of MG132-induced HSE-luciferase signal, confirmation, cell-based, NIH3T3, luminescence, dose retest (AID 2382); format: functional;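 also: NIH3T3 fibroblasts with HSF1-driven luciferase reporter stressed by proteasome inhibitor MG132; luminescence from HSF1-driven luciferase expression after 8 hours of MG132 stress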
T1 sequence (P38532 whole entry): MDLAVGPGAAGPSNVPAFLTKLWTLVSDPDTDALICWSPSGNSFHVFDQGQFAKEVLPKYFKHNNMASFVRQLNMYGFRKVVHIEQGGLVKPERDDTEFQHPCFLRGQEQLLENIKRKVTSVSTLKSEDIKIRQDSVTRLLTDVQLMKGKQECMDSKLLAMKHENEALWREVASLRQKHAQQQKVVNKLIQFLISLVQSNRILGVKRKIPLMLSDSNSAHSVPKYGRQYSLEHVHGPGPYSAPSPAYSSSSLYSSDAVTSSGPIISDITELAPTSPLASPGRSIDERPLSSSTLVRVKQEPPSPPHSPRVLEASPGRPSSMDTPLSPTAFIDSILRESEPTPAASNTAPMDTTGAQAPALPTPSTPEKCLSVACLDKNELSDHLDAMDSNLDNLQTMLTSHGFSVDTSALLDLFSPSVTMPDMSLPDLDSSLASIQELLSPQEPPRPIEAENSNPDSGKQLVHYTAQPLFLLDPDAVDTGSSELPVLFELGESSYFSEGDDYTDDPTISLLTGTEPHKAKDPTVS

[2] = HEp-2 cell cytotoxicity, dose response, cytotoxicity control for RSV inhibitor project, HTS (AID 2410); format: functional; settings: human respiratory syncytial virus
Cytochrome P450 2C9 = Cytochrome P450 2C9 (Homo sapiens, UniProt P11712)
Cytochrome P450 2D6 = Cytochrome P450 2D6 (Homo sapiens, UniProt P10635);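 also: CYP2D6 member of a cytochrome P450 panel assay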
Cytochrome P450 3A4 = Cytochrome P450 3A4 (Homo sapiens, UniProt P08684);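 also: CYP3A4 tested as one member of a cytochrome P450 panel screen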
Streptococcus = assay: Group A Streptococcus viability loss, dose response, counter-screen for streptokinase expression inhibitor project, luminescence, BacTiterGlo (AID 1915); format: functional, organism-based;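 also: potency for reduction of bacterial viability or growth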
Streptokinase A = target: T2, Streptokinase A (Streptococcus pyogenes serotype M1, UniProt P10520); assay: S. pyogenes streptokinase expression inhibitors, potency, dose response, plasminogen activation absorbance, OD405 (AID 1914); format: functional, Streptococcus pyogenes M1 GAS;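 also: secreted streptokinase activity via plasminogen activation per viability signal from cell pellet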
T2 sequence (P10520 whole entry): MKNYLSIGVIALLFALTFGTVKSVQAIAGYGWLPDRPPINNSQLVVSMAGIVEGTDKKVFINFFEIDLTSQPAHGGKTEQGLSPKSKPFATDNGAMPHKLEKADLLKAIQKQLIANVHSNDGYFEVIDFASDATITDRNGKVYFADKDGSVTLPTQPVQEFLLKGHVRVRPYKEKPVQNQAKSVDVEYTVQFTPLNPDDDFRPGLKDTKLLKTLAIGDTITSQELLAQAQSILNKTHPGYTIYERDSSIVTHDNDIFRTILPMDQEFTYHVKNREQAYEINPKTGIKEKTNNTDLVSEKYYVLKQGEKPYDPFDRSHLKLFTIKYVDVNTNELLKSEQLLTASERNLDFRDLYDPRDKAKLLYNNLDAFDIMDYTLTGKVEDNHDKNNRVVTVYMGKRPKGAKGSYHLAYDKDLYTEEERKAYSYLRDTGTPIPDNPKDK

[3] = system: Streptococcus sp. 'group A'; assay: growth inhibition of control SK(-) GAS strain, dose response, counter-screen for streptokinase expression inhibitor project, luminescence, kanamycin, BacTiterGlo, confirmation (AID 1900); format: functional, organism-based
[4] = inhibitors of intracellular T. cruzi replication, confirmation, NIH3T3 host cells, beta-gal luminescence (AID 2044); format: functional, cell-based;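 also: intracellular parasites grown in NIH/3T3 mouse fibroblasts as host cells; luminescent beta-galactosidase reporter signal from transgenic T. cruzi replicating inside host cells; inhibitors lower the luminescence signal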
[5] = cytotoxicity toward NIH3T3 fibroblasts, dose response, counter-screen, cell-based, ATP luminescence, mouse fibroblasts (AID 2010); format: functional;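 also: cells exposed to compound for about 90 hours before reading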
Cytochrome P450 2C19 = Cytochrome P450 2C19 (Homo sapiens, UniProt P33261); assay: Cytochrome panel assay with activity outcomes. Panel member name: p450-cyp2c19 Compounds with AC50 equal or less than 10 uM are considered active; format: functional; settings: read-out: AC50
Cytochrome P450 1A2 = target: T3, Cytochrome P450 1A2 (Homo sapiens, UniProt P05177);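 also: PubChem cytochrome P450 panel assay, CYP1A2 panel member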
T3 sequence (P05177 whole entry): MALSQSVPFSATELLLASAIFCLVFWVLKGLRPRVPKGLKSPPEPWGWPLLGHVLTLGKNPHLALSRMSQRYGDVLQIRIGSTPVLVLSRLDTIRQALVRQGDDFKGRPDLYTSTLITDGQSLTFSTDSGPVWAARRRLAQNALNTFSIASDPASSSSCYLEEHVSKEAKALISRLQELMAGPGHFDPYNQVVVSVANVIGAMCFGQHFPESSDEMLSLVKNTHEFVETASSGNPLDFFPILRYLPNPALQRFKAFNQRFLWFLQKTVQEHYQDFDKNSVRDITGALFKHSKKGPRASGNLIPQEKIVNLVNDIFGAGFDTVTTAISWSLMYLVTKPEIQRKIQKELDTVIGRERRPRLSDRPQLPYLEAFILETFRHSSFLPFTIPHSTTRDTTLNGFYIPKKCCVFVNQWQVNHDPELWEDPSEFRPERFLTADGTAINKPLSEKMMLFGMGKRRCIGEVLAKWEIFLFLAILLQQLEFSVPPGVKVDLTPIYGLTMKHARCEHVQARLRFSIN

Sequence of Cytochrome P450 2D6 (P10635 whole entry): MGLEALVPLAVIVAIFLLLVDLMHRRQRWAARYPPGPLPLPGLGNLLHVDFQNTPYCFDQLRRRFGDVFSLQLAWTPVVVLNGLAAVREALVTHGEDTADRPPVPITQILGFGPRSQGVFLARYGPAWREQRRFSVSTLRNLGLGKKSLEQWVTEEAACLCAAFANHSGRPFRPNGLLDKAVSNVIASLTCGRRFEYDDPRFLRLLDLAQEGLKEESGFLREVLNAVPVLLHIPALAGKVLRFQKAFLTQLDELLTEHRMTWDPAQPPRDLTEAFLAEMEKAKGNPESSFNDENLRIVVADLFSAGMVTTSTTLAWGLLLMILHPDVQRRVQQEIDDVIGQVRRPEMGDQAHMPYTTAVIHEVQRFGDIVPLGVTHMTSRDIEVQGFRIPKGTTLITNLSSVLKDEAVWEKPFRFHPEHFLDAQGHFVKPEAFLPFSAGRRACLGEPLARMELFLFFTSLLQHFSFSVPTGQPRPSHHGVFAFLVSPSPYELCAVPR
Sequence of Cytochrome P450 3A4 (P08684 whole entry): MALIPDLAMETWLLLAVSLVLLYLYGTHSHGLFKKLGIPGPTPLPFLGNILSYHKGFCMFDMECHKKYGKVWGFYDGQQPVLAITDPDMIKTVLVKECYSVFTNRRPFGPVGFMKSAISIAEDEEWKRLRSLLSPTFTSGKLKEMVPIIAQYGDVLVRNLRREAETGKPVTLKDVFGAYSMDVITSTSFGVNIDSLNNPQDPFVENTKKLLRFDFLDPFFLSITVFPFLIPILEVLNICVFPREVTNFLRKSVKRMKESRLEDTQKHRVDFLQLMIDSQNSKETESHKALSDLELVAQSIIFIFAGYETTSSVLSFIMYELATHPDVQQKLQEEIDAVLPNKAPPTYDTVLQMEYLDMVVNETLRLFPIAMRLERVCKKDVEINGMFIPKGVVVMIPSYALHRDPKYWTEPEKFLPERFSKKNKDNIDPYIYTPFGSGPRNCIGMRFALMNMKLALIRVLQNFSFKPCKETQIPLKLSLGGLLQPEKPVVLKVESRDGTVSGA
Sequence of Cytochrome P450 2C9 (P11712 whole entry): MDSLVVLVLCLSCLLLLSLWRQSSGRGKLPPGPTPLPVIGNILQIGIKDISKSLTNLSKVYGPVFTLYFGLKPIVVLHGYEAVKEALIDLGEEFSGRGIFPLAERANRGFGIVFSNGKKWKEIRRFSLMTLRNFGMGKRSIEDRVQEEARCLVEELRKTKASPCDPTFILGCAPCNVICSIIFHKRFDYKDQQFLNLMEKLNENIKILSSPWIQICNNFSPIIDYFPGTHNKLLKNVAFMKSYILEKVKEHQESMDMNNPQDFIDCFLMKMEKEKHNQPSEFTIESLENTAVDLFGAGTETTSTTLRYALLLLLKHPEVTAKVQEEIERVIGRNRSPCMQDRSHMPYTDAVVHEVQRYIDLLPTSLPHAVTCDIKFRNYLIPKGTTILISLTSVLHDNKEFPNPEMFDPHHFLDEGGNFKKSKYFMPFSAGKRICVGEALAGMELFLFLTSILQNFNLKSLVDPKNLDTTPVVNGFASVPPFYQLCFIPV
Sequence of Cytochrome P450 2C19 (P33261 whole entry): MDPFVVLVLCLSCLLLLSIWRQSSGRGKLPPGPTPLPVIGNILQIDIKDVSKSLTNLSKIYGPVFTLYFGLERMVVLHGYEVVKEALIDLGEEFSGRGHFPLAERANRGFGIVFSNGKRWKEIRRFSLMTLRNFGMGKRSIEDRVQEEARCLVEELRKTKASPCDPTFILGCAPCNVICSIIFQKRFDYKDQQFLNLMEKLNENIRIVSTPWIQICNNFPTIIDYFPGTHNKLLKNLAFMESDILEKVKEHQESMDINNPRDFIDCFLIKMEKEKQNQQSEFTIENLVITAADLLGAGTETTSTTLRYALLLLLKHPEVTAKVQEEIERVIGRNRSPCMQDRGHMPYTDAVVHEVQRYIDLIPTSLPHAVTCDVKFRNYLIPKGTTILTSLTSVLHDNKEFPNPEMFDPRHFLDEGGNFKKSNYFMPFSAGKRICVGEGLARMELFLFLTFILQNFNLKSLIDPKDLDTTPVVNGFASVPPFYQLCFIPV

CN(C)S(=O)(=O)c1ccc(C(=O)OCCCNC2=NS(=O)(=O)c3ccccc32)cc1
EC50 [1]: 26 µM (active)

CCOC(=O)C1CCCN(c2nc3ccccc3nc2C(C#N)C(=O)OCCOC)C1 (stereo not drawn)
CC50 [2]: 41.7 µM (active)

CNc1oc(-c2ccc(Cl)cc2)nc1C#N
AC50 (Cytochrome P450 2C9): 8.91 µM (inconclusive)
AC50 (Cytochrome P450 2D6): 22.4 µM (inconclusive)
AC50 (Cytochrome P450 3A4): 14.1 µM (inconclusive)

COc1ccc(-c2cc(C(F)(F)F)n3ncc(C(=O)N(C)Cc4ccccc4)c3n2)cc1
CC50 [2]: 32.9 µM (active)

Cc1c([C@@H](C)[C@H]2NC[C@H](C)C[C@@H]2O)ccc2c1C[C@@H]1[C@H]2CC=C2C[C@@H](O)CC[C@@]21C
AC50 (Cytochrome P450 3A4): 3.16 µM (inconclusive)

O=C(O)c1c(Cl)c(Cl)c(Cl)c(Cl)c1C(=O)Nc1ccc2cn[nH]c2c1
AC50 (Cytochrome P450 2D6): 3.98 µM (inconclusive)
AC50 (Cytochrome P450 3A4): 3.98 µM (inconclusive)

COC(=O)c1cc(-c2cccc(OC)c2)c2c(=O)[nH]c(=O)n(C)c2n1
EC50 (Streptococcus): 11.7 µM (active)
EC50 (Streptokinase A): > 150 µM (not active)
EC50 [3]: 6.29 µM (active)

O=C(Nc1ccc(-c2csc(Nc3ccccc3)n2)cc1)c1cc([N+](=O)[O-])cc(C(F)(F)F)c1
CC50 [2]: 14.6 µM (active)

O=S(=O)(NC(=Nc1ccc(F)cc1F)c1ccc(Cl)cc1)c1ccccc1
AC50 (Cytochrome P450 3A4): 2.82 µM (inconclusive)

CCN(CC)C(=O)COC(=O)c1ccc(C)c(NC(=O)c2ccco2)c1
EC50 [1]: > 195 µM (not active)

O=C(Nc1ccc(N2CCCC2)c(Cl)c1)c1ccc(Br)o1
EC50 [4]: 1.63 µM (active)
CC50 [2]: 30.6 µM (active)
EC50 [5]: > 60 µM (not active)

C[n+]1c(/C=C/c2ccc(O)c3ncccc23)[se]c2ccccc21
AC50 (Cytochrome P450 2C19): 3.98 µM (inconclusive)
AC50 (Cytochrome P450 2C9): 6.31 µM (inconclusive)
AC50 (Cytochrome P450 3A4): 3.98 µM (inconclusive)

CCc1nc2ccc(C(=O)O)cc2nc1CC
EC50 [1]: 6.93 µM (active)

Cc1ccccc1C(=O)Nc1scc(-c2ccc(Br)cc2)c1C(=O)O
EC50 (Streptococcus): 7.36 µM (active)
EC50 (Streptokinase A): > 150 µM (not active)
EC50 [3]: 3.46 µM (active)

COc1ccc(Oc2ncc3nc(-c4ccc(OC)cc4)c(=O)n(C)c3n2)cc1
AC50 (Cytochrome P450 1A2): 3.16 µM (inconclusive)
AC50 (Cytochrome P450 3A4): 3.98 µM (inconclusive)

CC(C)Nc1nc(NC(C)C)nc(N(C)N)n1
EC50 (Streptococcus): > 150 µM (not active)
EC50 (Streptokinase A): > 150 µM (not active)
EC50 [3]: 32.9 µM (active)

CC1(C)CC(=O)c2cc(OCC(=O)N3CCN(c4ccccc4F)CC3)ccc2O1
EC50 [1]: > 195 µM (not active)

Ic1ccccc1CN[C@@H]1C2CCN(CC2)[C@H]1C(c1ccccc1)c1ccccc1
AC50 (Cytochrome P450 1A2): 12.6 µM (inconclusive)
AC50 (Cytochrome P450 3A4): 20 µM (inconclusive)

COC(=O)CCC(=O)Nc1cccc(C(=O)Nc2cccc(Cl)c2)c1
AC50 (Cytochrome P450 2D6): 22.4 µM (inconclusive)
AC50 (Cytochrome P450 3A4): 0.398 µM (inconclusive)

COc1ccc(CN2/C(=N/C(=O)CCC3CCCC3)SC3CS(=O)(=O)CC32)cc1 (stereo not drawn)
EC50 [1]: > 195 µM (not active)

C1CCC(Nc2nnnn2C2CCCCC2)CC1
EC50 [1]: > 195 µM (not active)

CC1CCN(S(=O)(=O)c2ccc(C(=O)Nc3nnc(-c4ccccn4)o3)cc2)CC1
EC50 [1]: 45.5 µM (active)

CC1CCCCN1CC(=O)Nc1ccccc1Sc1ccccc1 (stereo not drawn)
EC50 [1]: > 195 µM (not active)

O=C(O)/C=C/c1cn(-c2ncc(C(F)(F)F)cc2Cl)c2ccccc12
AC50 (Cytochrome P450 2C19): 14.1 µM (inconclusive)
AC50 (Cytochrome P450 2C9): 17.8 µM (inconclusive)
AC50 (Cytochrome P450 1A2): 35.5 µM (inconclusive)

CC(C)c1ccc(NC2(C#N)C(=O)Nc3ccccc32)cc1 (stereo not drawn)
EC50 [1]: > 195 µM (not active)

CC(C)(C)c1ccc(OC(=O)c2cccnc2)cc1
EC50 [1]: > 195 µM (not active)

O=C(COC(=O)c1ccccc1SCC(=O)N1CCCC1)NC1CCS(=O)(=O)C1 (stereo not drawn)
EC50 [1]: > 195 µM (not active)

O=C(COC(=O)C1=COCCO1)Nc1ccc2c(c1)OCO2
EC50 [1]: > 195 µM (not active)

Fc1ccc(Cn2cccc2C2=NC(c3ccccc3)CO2)cc1 (stereo not drawn)
EC50 (Streptococcus): > 150 µM (not active)
EC50 (Streptokinase A): 23.8 µM (active)
EC50 [3]: 16 µM (active)

Cc1nc2ccccc2c(=O)n1NC(=O)c1ccccc1Cl
AC50 (Cytochrome P450 1A2): 15.8 µM (inconclusive)
AC50 (Cytochrome P450 3A4): 22.4 µM (inconclusive)

CCOC(=O)c1c(C)[nH]c(C(=O)N2CCc3cc(OC)c(OC)cc3C2)c1C
CC50 [2]: 34.8 µM (active)

Cc1cccc(-c2nnc(NC(=O)c3cccs3)s2)c1
EC50 [1]: > 195 µM (not active)

Cc1cc2cc3c(cc2nc1SCC(=O)N1c2ccccc2CC1C)OCO3 (stereo not drawn)
CC50 [2]: 34 µM (active)

CC(=O)C1C(=O)c2c(cccc2[N+](=O)[O-])/C1=N\c1ccc(S(N)(=O)=O)cc1 (stereo not drawn)
EC50 [1]: > 195 µM (not active)

COc1ccc(Nc2nc(N)nc(CSc3n[nH]c(-c4ccccc4)n3)n2)cc1
AC50 (Cytochrome P450 2C9): 12.6 µM (inconclusive)
AC50 (Cytochrome P450 2D6): 3.55 µM (inconclusive)
AC50 (Cytochrome P450 3A4): 3.98 µM (inconclusive)

CCOC(=O)c1cnn(-c2nc(-c3ccccc3F)cs2)c1C(F)(F)F
EC50 (Streptococcus): 23.8 µM (active)
EC50 (Streptokinase A): 34.3 µM (active)
EC50 [3]: 17.9 µM (active)

CCCCNc1nc2cccnc2s1
EC50 [1]: > 195 µM (not active)

CCCNC(=O)OC[C@@H]1O[C@H](CCO/N=C\c2ccc(C(=O)N3[C@H](c4ccc(C)cc4)[C@@H](C)CC[C@H]3C(=O)OC)cc2)C=C[C@@H]1Oc1ccc(OC)cc1
AC50 (Cytochrome P450 2C19): 1.26 µM (inconclusive)
AC50 (Cytochrome P450 3A4): 3.16 µM (inconclusive)

Cc1ccc(C)c(C(=O)CN2C3=NCCCN3c3ccccc32)c1
AC50 (Cytochrome P450 2C19): 39.8 µM (inconclusive)
AC50 (Cytochrome P450 3A4): 12.6 µM (inconclusive)

CCOc1ccc(N2CSC(=S)N(c3ccc(OCC)cc3)C2)cc1
EC50 [1]: > 195 µM (not active)

Cc1nc2cnc(Oc3ccccc3)nc2n(CCC#N)c1=O
AC50 (Cytochrome P450 1A2): 20 µM (inconclusive)
AC50 (Cytochrome P450 3A4): 25.1 µM (inconclusive)

CSc1cccc(-c2nnc(NC(=O)c3cccc(N4C(=O)CCC4=O)c3)o2)c1
EC50 (Streptococcus): 131 µM (active)
EC50 (Streptokinase A): > 150 µM (not active)
EC50 [3]: 4.88 µM (active)

CCc1ccccc1NC(=O)NNS(=O)(=O)c1cc(C)ccc1C
EC50 (Streptococcus): > 150 µM (not active)
EC50 (Streptokinase A): 4.21 µM (active)
EC50 [3]: > 150 µM (not active)

O=C(Cc1ccccc1)N/N=C/c1cc(Br)c(Br)o1
AC50 (Cytochrome P450 3A4): 28.2 µM (inconclusive)

O=C(NCC1CCCO1)c1ccc2c(=O)n(Cc3ccco3)c(SCC(=O)N3CCCC3)nc2c1 (stereo not drawn)
AC50 (Cytochrome P450 2C19): 15.8 µM (inconclusive)
AC50 (Cytochrome P450 3A4): 12.6 µM (inconclusive)

O=C(O)c1cccc(NC(=S)N/N=C/c2cccnc2)c1
EC50 [1]: > 195 µM (not active)

O=C(Nc1ccc(/C=C/c2nc3ccccc3o2)cc1)c1c(F)cccc1F
CC50 [2]: > 50 µM (active)

O=c1c(-c2ccccc2)nc2cnc(N3CCNCC3)nc2n1-c1ccccc1
AC50 (Cytochrome P450 3A4): 20 µM (inconclusive)

Cc1ccc2nc(NC(=O)c3ccc(NS(=O)(=O)c4cccs4)cc3)sc2c1
CC50 [2]: 25.1 µM (active)

C=CC/N=C1\S/C(=C\c2ccc(Cl)cc2)C(=O)N1CC=C
CC50 [2]: 44.3 µM (active)

From ChEMBL document CHEMBL1201862, “PubChem BioAssay data set” (2004)
